Test results reported in ChEMBL document CHEMBL1201862, “PubChem BioAssay data set” (2004).
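Where inhibition never reached the appropriate level, the endpoint shown equals the highest concentration tested. Otherwise, values were interpolated linearly from a five-concentration, 48-hour dose response in 96-well plates. At the GI50, growth is halved.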 The source made the active and inactive calls. Rule as the data show it: active = GI50 up to about 1.1 µM and inactive = higher.

Legend:
Test in all cases: growth of human tumour cells (NCI), 48 h
MDA-N = test system: MDA-N
U-251 = test system: U-251
SF-295 = test system: SF-295
RPMI-8226 = test system: RPMI-8226
HCT-116 = test system: HCT-116
HOP-62 = test system: HOP-62
SNB-19 = test system: SNB-19
COLO 205 = test system: COLO 205
SN12C = test system: SN12C
HT-29 = test system: HT-29
MCF7 = test system: MCF7
SNB-75 = test system: SNB-75
SK-OV-3 = test system: SK-OV-3
CAKI-1 = test system: CAKI-1
Hs-578T = test system: Hs-578T
NCI-H23 = test system: NCI-H23
SK-MEL-2 = test system: SK-MEL-2
MDA-MB-435 = test system: MDA-MB-435
LOX IMVI = test system: LOX IMVI
IGROV-1 = test system: IGROV-1

Compound	GI50 (MDA-N)	GI50 (U-251)	GI50 (SF-295)	GI50 (RPMI-8226)	GI50 (HCT-116)	GI50 (HOP-62)	GI50 (SNB-19)	GI50 (COLO 205)	GI50 (SN12C)	GI50 (HT-29)	GI50 (MCF7)	GI50 (SNB-75)	GI50 (SK-OV-3)	GI50 (CAKI-1)	GI50 (Hs-578T)	GI50 (NCI-H23)	GI50 (SK-MEL-2)	GI50 (MDA-MB-435)	GI50 (LOX IMVI)	GI50 (IGROV-1)
O=c1[nH]cnc2c1ncn2C1SC(CO)C(O)C1O (centres undefined)	> 100 µM (inactive)	> 100 µM (inactive)	> 100 µM (inactive)	> 100 µM (inactive)	> 100 µM (inactive)	> 100 µM (inactive)	> 100 µM (inactive)	> 100 µM (inactive)	> 100 µM (inactive)	> 100 µM (inactive)	> 100 µM (inactive)	> 100 µM (inactive)	> 100 µM (inactive)	> 100 µM (inactive)	> 100 µM (inactive)	> 100 µM (inactive)	> 100 µM (inactive)	> 100 µM (inactive)	> 100 µM (inactive)	> 100 µM (inactive)
CC(C)=CCC[C@H](C)[C@H]1CC[C@@H](C)c2cc(O)c(C)cc21	17.4 µM (inactive)	17.1 µM (inactive)	16.9 µM (inactive)	26.1 µM (inactive)	18.4 µM (inactive)	19.1 µM (inactive)	16.6 µM (inactive)	18.3 µM (inactive)	15.9 µM (inactive)	20.6 µM (inactive)	17.5 µM (inactive)	19.1 µM (inactive)	19.1 µM (inactive)	15.7 µM (inactive)	19.9 µM (inactive)	18.1 µM (inactive)	17 µM (inactive)	18.6 µM (inactive)	16.3 µM (inactive)	17.1 µM (inactive)
Cc1ccc(N(C=O)c2c([N+](=O)[O-])cc([N+](=O)[O-])c3c2=[N+]([O-])CN=3)cc1	27.5 µM (inactive)	28.4 µM (inactive)	65.5 µM (inactive)	20.7 µM (inactive)	24.8 µM (inactive)	60 µM (inactive)	66.8 µM (inactive)	28.5 µM (inactive)	31.6 µM (inactive)	49 µM (inactive)	21.2 µM (inactive)	33.7 µM (inactive)	> 100 µM (inactive)	32.3 µM (inactive)	29 µM (inactive)	23.5 µM (inactive)	17.7 µM (inactive)	30.8 µM (inactive)	21.9 µM (inactive)	38.8 µM (inactive)
N#Cc1cnc(N)nc1NCC1(CO)CC(CCc2ccccc2)C1 (centres undefined)	29.9 µM (inactive)	> 59.2 µM (inactive)	18.5 µM (inactive)	> 100 µM (inactive)	12 µM (inactive)	58.1 µM (inactive)	55.3 µM (inactive)	> 100 µM (inactive)	> 100 µM (inactive)	> 100 µM (inactive)	49.1 µM (inactive)	20.8 µM (inactive)	27.1 µM (inactive)	> 100 µM (inactive)	> 70.8 µM (inactive)	63.4 µM (inactive)	> 100 µM (inactive)	25.2 µM (inactive)	5.26 µM (inactive)	55 µM (inactive)
NS(=O)(=O)c1ccc(NC(=S)NC=C2C(=O)c3ccccc3C2=O)cc1	> 100 µM (inactive)	76.2 µM (inactive)	> 100 µM (inactive)	36.4 µM (inactive)	> 100 µM (inactive)	> 100 µM (inactive)	> 100 µM (inactive)	> 100 µM (inactive)	> 100 µM (inactive)	–	17.9 µM (inactive)	19.4 µM (inactive)	> 100 µM (inactive)	86.5 µM (inactive)	14.4 µM (inactive)	> 100 µM (inactive)	62.1 µM (inactive)	91.4 µM (inactive)	> 100 µM (inactive)	23.3 µM (inactive)
O=C(O)c1ccccc1CC1Cc2ccccc2C1=O (centres undefined)	> 100 µM (inactive)	> 100 µM (inactive)	> 100 µM (inactive)	> 100 µM (inactive)	> 100 µM (inactive)	> 100 µM (inactive)	> 100 µM (inactive)	> 100 µM (inactive)	> 100 µM (inactive)	> 100 µM (inactive)	> 100 µM (inactive)	64.7 µM (inactive)	> 100 µM (inactive)	> 100 µM (inactive)	> 100 µM (inactive)	> 100 µM (inactive)	> 100 µM (inactive)	> 100 µM (inactive)	> 100 µM (inactive)	> 100 µM (inactive)
Cc1cccc2c(N)c3cccc(C(=O)NCC[N+]4(Cc5ccc([N+](=O)[O-])cc5)CCOCC4)c3nc12	59.6 µM (inactive)	38.8 µM (inactive)	27.5 µM (inactive)	26.1 µM (inactive)	16.1 µM (inactive)	25.7 µM (inactive)	18.2 µM (inactive)	45.9 µM (inactive)	3.99 µM (inactive)	25.8 µM (inactive)	38.9 µM (inactive)	16 µM (inactive)	> 100 µM (inactive)	> 100 µM (inactive)	7.26 µM (inactive)	35.9 µM (inactive)	> 79.1 µM (inactive)	80.5 µM (inactive)	39.9 µM (inactive)	20.6 µM (inactive)
CCOC(=O)c1c(N2CCOCC2)[nH]c(=O)c(C(c2ccco2)c2c(O)c(C(=O)OCC)c(N3CCOCC3)[nH]c2=O)c1O	> 100 µM (inactive)	> 100 µM (inactive)	> 100 µM (inactive)	> 100 µM (inactive)	> 100 µM (inactive)	> 100 µM (inactive)	> 100 µM (inactive)	> 100 µM (inactive)	> 100 µM (inactive)	> 100 µM (inactive)	> 100 µM (inactive)	> 100 µM (inactive)	> 100 µM (inactive)	> 100 µM (inactive)	> 100 µM (inactive)	> 100 µM (inactive)	> 100 µM (inactive)	> 100 µM (inactive)	> 100 µM (inactive)	–
O=c1[nH]c(Nc2cccc(C(F)(F)F)c2)nc2[nH]cnc12	82.2 µM (inactive)	> 100 µM (inactive)	> 100 µM (inactive)	> 100 µM (inactive)	80 µM (inactive)	> 100 µM (inactive)	> 100 µM (inactive)	73.3 µM (inactive)	> 100 µM (inactive)	77.1 µM (inactive)	> 100 µM (inactive)	71.1 µM (inactive)	> 100 µM (inactive)	> 100 µM (inactive)	75.7 µM (inactive)	–	88.3 µM (inactive)	> 100 µM (inactive)	> 100 µM (inactive)	> 100 µM (inactive)
CCOC(=O)c1c(NC(=O)c2ccccc2)sc2c1CCCC2	> 100 µM (inactive)	> 100 µM (inactive)	> 100 µM (inactive)	> 100 µM (inactive)	> 100 µM (inactive)	–	> 100 µM (inactive)	> 100 µM (inactive)	> 100 µM (inactive)	> 100 µM (inactive)	> 100 µM (inactive)	7.23 µM (inactive)	> 100 µM (inactive)	> 100 µM (inactive)	> 100 µM (inactive)	> 100 µM (inactive)	> 100 µM (inactive)	> 100 µM (inactive)	> 100 µM (inactive)	> 100 µM (inactive)
COC(=O)CCC(=O)c1ccc2c(c1)CC1(C2)Cc2ccc(C(=O)CCC(=O)OC)cc2C1	73.1 µM (inactive)	36.4 µM (inactive)	53.8 µM (inactive)	35.2 µM (inactive)	> 100 µM (inactive)	43.5 µM (inactive)	–	94.4 µM (inactive)	> 100 µM (inactive)	> 100 µM (inactive)	44.1 µM (inactive)	< 0.01 µM (active)	67 µM (inactive)	–	> 100 µM (inactive)	59.7 µM (inactive)	0.61 µM (active)	> 100 µM (inactive)	> 100 µM (inactive)	> 100 µM (inactive)
COc1ccc(/C(C)=C2\CCCN(Cc3ccccc3)C2)cc1	18.8 µM (inactive)	19.6 µM (inactive)	16.5 µM (inactive)	18.6 µM (inactive)	–	18.3 µM (inactive)	22.9 µM (inactive)	17.5 µM (inactive)	–	18.9 µM (inactive)	19.2 µM (inactive)	24.2 µM (inactive)	29.9 µM (inactive)	22.6 µM (inactive)	13.5 µM (inactive)	25.8 µM (inactive)	19.1 µM (inactive)	20.7 µM (inactive)	16.7 µM (inactive)	28.2 µM (inactive)
CCOC(=O)C(Cc1ccc2c(c1)CCC2)Cc1ccc2c(c1)CCC2	98.4 µM (inactive)	51.4 µM (inactive)	89.9 µM (inactive)	44.4 µM (inactive)	33.3 µM (inactive)	> 100 µM (inactive)	> 100 µM (inactive)	–	–	45.9 µM (inactive)	45.4 µM (inactive)	> 100 µM (inactive)	> 100 µM (inactive)	> 100 µM (inactive)	> 100 µM (inactive)	69 µM (inactive)	> 100 µM (inactive)	42 µM (inactive)	20.7 µM (inactive)	> 100 µM (inactive)
Cc1ccc(/N=N/C(=N/NC(=O)c2ccccc2)c2ccc(N(CCC#N)CCC#N)cc2C)cc1	3.97 µM (inactive)	52.6 µM (inactive)	21.7 µM (inactive)	> 100 µM (inactive)	29.3 µM (inactive)	41.6 µM (inactive)	35 µM (inactive)	35.2 µM (inactive)	40.8 µM (inactive)	19 µM (inactive)	21.3 µM (inactive)	32.7 µM (inactive)	60.3 µM (inactive)	> 100 µM (inactive)	13 µM (inactive)	52.6 µM (inactive)	50.4 µM (inactive)	4.97 µM (inactive)	–	29.3 µM (inactive)
